Measured values from ChEMBL document CHEMBL1133259, “Polymethylcarborane as a novel bioactive moiety: derivatives with potent retinoid antagonistic activity” (Bioorg Med Chem Lett, 2000).

Test system: HL-60
Assay: Inhibitory concentration which reduces half the percentage of differentiated HL-60 cells induced by 1x 10 e-9 M Am80
Format: functional, cell-based
Conditions: Homo sapiens

CN1c2cc3c(cc2N=C(c2ccc(C(=O)O)cc2)c2ccc4ccccc4c21)C(C)(C)CCC3(C)C
IC50: 17 nM
